Our source for the inhibition values is the Kinase Knowledgebase extract (Sharma et al. 2016).

This test has as its target CDK2 (UniProt P24941). The experiment in a line: Enzyme Assay. To be noted: concentration not given here.
As for `CC(c1ccccc1)c1cc(C(N)=O)c(NC(=O)c2cnc3ccccc3c2)s1` (centres undefined), the inhibition came out at 100%.
As for `CC(c1ccccc1)c1cc(C(N)=O)c(NC(=O)c2cn(C)c3ccccc23)s1` (centres undefined), the inhibition stood at 100%.
On to `Cc1ccc(C(=O)Nc2sc(-c3ccccc3)cc2C(N)=O)c(O)c1`, for which the inhibition stood at 100%.
On to `CC(c1ccccc1)c1cc(C(N)=O)c(NC(=O)c2ccc3ccccc3c2)s1` (centres undefined), for which the inhibition came to 100%.
The compound `CC(c1ccccc1)c1cc(C(N)=O)c(NC(=O)C2=CN(C)CCC2)s1` (centres undefined) gave an inhibition of 100%.
With `Cc1csc(NC(=O)C(C)NC(=O)c2ccccc2)c1C(N)=O` (centres undefined), the inhibition was determined as 100%.
`Cc1csc(NC(=O)c2ccccc2S(C)(=O)=O)c1C(N)=O`: the inhibition is 100%.
Regarding `Cc1sc(NC(=O)c2ccccc2-n2cccc2)c(C(N)=O)c1C`, the inhibition came to 100%.
Next, `CC(c1ccccc1)c1cc(C(N)=O)c(NC(=O)C2CC(=O)c3ccccc32)s1` (centres undefined): 100%; `COc1ccc(/C=C\C(=O)Nc2scc(C)c2C(N)=O)c(OC)c1`: 100%; `Cc1csc(NC(=O)c2ccc(S(C)(=O)=O)cc2)c1C(N)=O`: 100%.
For `COc1ccc(/C=C\C(=O)Nc2sc(C(C)c3ccccc3)cc2C(N)=O)cc1` (centres undefined) the value was 100%; for `Cc1ccc(C(=O)Nc2sc(C(C)C)cc2C(N)=O)cc1C`, 100%.
Next, `NC(=O)c1cc(Cc2ccccc2)sc1NC(=O)c1cc2ccccc2[nH]1`: 100%.
`Cc1ccc(CC(=O)Nc2sc(C(C)C)cc2C(N)=O)cc1` registered an inhibition of 100%.
Turning to `NC(=O)c1c(NC(=O)c2ccncc2)sc2c1CCCC2`, the inhibition amounted to 100%.
In the case of `NC(=O)c1c(NC(=O)c2ccsc2)sc2c1CCCC2`, the inhibition was 100%.
For the compound `NC(=O)CN(C(=O)c1ccco1)c1sc(Cc2ccccc2)cc1C(N)=O`, the inhibition worked out at 100%.
Turning to `CC(=O)N[C@@H](CC(N)=O)C(=O)Nc1sc(C(C)c2ccccc2)cc1C(N)=O` (some centres undefined), the inhibition is 100%.
With `CN1CCc2c(sc(NC(=O)Cc3c[nH]c4cccc(Cl)c34)c2C(N)=O)C1`, the inhibition worked out at 100%.
On to `NC(=O)c1cc(-c2ccccc2)sc1NC(=O)Cc1ccccc1O`, for which the inhibition worked out at 100%.
With `NC(=O)c1cc(Cc2ccccc2)sc1NC(=O)c1cccc2[nH]ccc12`, the inhibition was 100%.
For `Cc1cc(C)cc(C(=O)Nc2sc(C(C)C)cc2C(N)=O)c1`, the inhibition worked out at 100%.
`CN1CCc2c(sc(NC(=O)CCN3C(=O)c4ccccc4C3=O)c2C(N)=O)C1` returned an inhibition of 100%.
For `CC(C)=NOC(C)C(=O)Nc1sc(C(C)C)cc1C(N)=O` (centres undefined) the value was 100%; for `Cc1csc(NC(=O)c2cnn(-c3ccccc3)c2C)c1C(N)=O`, 100%; for `CC(C)c1cc(C(N)=O)c(NC(=O)/C=C/c2ccncc2)s1`, 100%.
The compound `NC(=O)c1c(NC(=O)c2ccccc2O)sc2c1CCCC2` came in with an inhibition of 100%.
For the compound `CC(=O)NC(=O)C(CC(C)C)Nc1sc(C(C)c2ccccc2)cc1C(N)=O` (centres undefined), the inhibition was determined as 100%.
As to `CCCCC(C)(C)C(=O)Nc1sc(C(C)C)cc1C(N)=O`, the inhibition was 100%.
For `Cc1sc(NC(=O)/C=C/CNC2=CCC(=O)C=C2)c(C(N)=O)c1C` the value was 100%.
Next, `CN1CCc2c(sc(NC(=O)Cc3ccc(S(C)(=O)=O)cc3)c2C(N)=O)C1`: 100%.
Compound `COc1cc(/C=C\C(=O)Nc2scc(C)c2C(N)=O)cc(OC)c1` came in with an inhibition of 100%.
Compound `C=CCN(C(C)=O)C(=O)CNc1sc(-c2ccccc2)cc1C(N)=O` had an inhibition of 100%.
As for `NC(=O)c1cc(-c2ccccc2)sc1NC(=O)c1cc2ccccc2o1`, the inhibition was 100%.
`COc1ccc(CC(=O)Nc2scc(C)c2C(N)=O)c(OC)c1`: the inhibition amounted to 100%.
Compound `CC(c1ccccc1)c1cc(C(N)=O)c(NC(=O)C(c2ccccc2)C(C)C)s1` (centres undefined) gave an inhibition of 100%.
For `CC(=O)Nc1cccc(C(=O)Nc2sc(C(C)c3ccccc3)cc2C(N)=O)c1` (centres undefined) the value was 100%.
Compound `NC(=O)c1cc(-c2ccccc2)sc1NC(=O)/C=C/c1ccsc1` gave an inhibition of 100%.
On to `NC(=O)c1c(NC(=O)Cc2ccccc2)sc2c1CCCC2`, for which the inhibition was determined as 100%.
`CC(C)C(C(=O)O)N(C(N)=O)c1sc(Cc2ccccc2)cc1C(N)=O` (centres undefined) yielded an inhibition of 100%.
Consider `CC(c1ccccc1)c1cc(C(N)=O)c(NC(=O)c2cccc3ccccc23)s1` (centres undefined), for which the inhibition was found to be 100%.
Turning to `CC(=O)N(C#N)c1sc2c(c1C(N)=O)CCCC2`, the inhibition stood at 100%.
The compound `Cc1sc(NC(=O)Cn2cc(C)c(=O)[nH]c2=O)c(C(N)=O)c1C` showed an inhibition of 100%.
`Cc1csc(NC(=O)CCCCCN2C(=O)C=CC2=O)c1C(N)=O` registered an inhibition of 100%.
Compound `CN1CCc2c(sc(NC(=O)c3sc4ccccc4c3Cl)c2C(N)=O)C1` came in with an inhibition of 100%.
For the compound `Cc1cc(C)cc(CC(=O)Nc2sc(Cc3ccccc3)cc2C(N)=O)c1`, the inhibition came to 100%.
For `C/C(=C/c1ccccc1)C(=O)Nc1sc(-c2ccccc2)cc1C(N)=O` the value was 100%.
In the case of `CCC(=O)Nc1sc2c(c1C(N)=O)CCCC2`, the inhibition was determined as 100%.
Next, `NC(=O)c1c(NC(=O)c2cccc(O)c2)sc2c1CCCC2`: 100%; `CC#CC(=O)Nc1sc2c(c1C(N)=O)CCCC2`: 100%.
Next, `Cc1nc2cc(C(=O)Nc3sc(C)c(C)c3C(N)=O)ccc2[nH]1`: 100%; `CCN(CC)CCC(=O)Nc1sc(C)c(C)c1C(N)=O`: 100%.
For the compound `CC(C)c1ccc(C(=O)Nc2sc(Cc3ccccc3)cc2C(N)=O)cc1`, the inhibition was 100%.
`NC(=O)c1cc(-c2ccccc2)sc1NC(=O)c1ccc(Cl)cc1` came in with an inhibition of 100%.
Take `CC(c1ccccc1)c1cc(C(N)=O)c(NC(=O)C2CCc3ccccc3C2)s1` (centres undefined): the inhibition came out at 100%.
With `CC(=O)Nc1ccccc1C(=O)Nc1sc(C(C)c2ccccc2)cc1C(N)=O` (centres undefined), the inhibition was determined as 100%.
For `Cc1csc(NC(=O)CNC(=O)/C=C/c2ccco2)c1C(N)=O`, the inhibition turned out to be 100%.
As to `CC(=O)N1CCC(C(=O)Nc2sc(C(C)c3ccccc3)cc2C(N)=O)CC1` (centres undefined), the inhibition was determined as 100%.
